Bounds are passed on as bounds.

Series [1] deals with isolated rat aorta. Put plainly: Calcium inhibitory properties: contractile response to potassium-induced depolarization on isolated rat aorta. The arrangement: species or system isolated organ, male Wistar rats. The conditions noted are these: for activity at 1 µM / activity at 0.1 µM / activity at 0.01 µM / activity at 0.001 µM: Rattus norvegicus, 1 h, read-out: % of the maximum contractional effect; for activity at 1 µM: 10^-6 M; for activity at 0.1 µM: 10^-7 M; for activity at 0.01 µM: 10^-8 M; for activity at 0.001 µM: 10^-9 M. A digest of the protocol:
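Male Wistar rat aorta strips under 2 g tension in modified Krebs-bicarbonate at 37° C, gassed with CO2/O2; contraction induced by 100 mM KCl potassium-Krebs. Compound incubated 60 min before repeat K+ depolarization; response expressed as % of maximum contraction before compound.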

Series [2] relates to isoprenaline-induced acceleration in heart rate (anti-β effect). Put plainly: Antiadrenergic properties: anti-β effect (reduction of isoprenaline-induced tachycardia). Format: in vivo. The arrangement: key to anti-β effect: +: for a reduction < 50%; ++: for a reduction ≥ 50%; +++: for a reduction sub-total (almost complete reduction). The conditions noted are these: dog; for inhibition in vivo at 1 mg/kg: 1 mg/kg i.v. Summed up:
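Pentobarbital-anaesthetized, atropinized dogs given isoprenaline (1–2 μg/kg, dose set per dog for ~70 beats/min rise) alternating with epinephrine every 10 min. After two reference responses, compound given intravenously; % reduction in isoprenaline tachycardia versus reference recorded.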

Series [3] has as its system epinephrine-induced increase in blood-pressure (anti-α effect). The series can be described thus: Antiadrenergic properties: anti-α effect (reduction of epinephrine-induced hypertension). The conditions noted are these: dog; for inhibition in vivo at 1 mg/kg: 1 mg/kg i.v. The arrangement: key to anti-α effect: +: for a reduction < 50%; ++: for a reduction ≥ 50%; +++: for a reduction sub-total (almost complete reduction). The format is in vivo. Summed up:
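Pentobarbital-anaesthetised, atropinised dogs given an epinephrine dose of 3–10 μg/kg, titrated per animal to raise blood pressure about 133×10^2 Pa. After two reference responses, test compound given intravenously. Result is % reduction of epinephrine-induced hypertension versus reference.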

Series [4] is described as follows: Acute toxicity, intravenous, Litchfield and Wilcoxon. The conditions noted are these: mouse, in vivo, mice. On the procedure: The acute toxicity of the compounds of the invention was determined intravenously in mice according to the method of Litchfield and Wilcoxon (J. Pharm. Exp. Therap. […], 96, 99).
The following results were obtained, expressed in the form of the LD50, compared with a benzoylindolizine derivative, in this case 2-ethyl-3-{4-[3-(di-n-butylamino)propyloxy]benzoyl}indolizine or butoprozine.

Where [5] appears, read: Canis lupus familiaris, iv, 5 mg/kg i.v.

In the case of `CCCN(CCC)CCCOc1ccc(S(=O)(=O)c2c(CC)cn3ccccc23)cc1.Cl` [Ex. 7, 2-Ethyl-1-{4-[3-(di-n-propylamino)propyloxy]benzenesulphonyl}indolizine hydrochloride], in series [1], the activity at 1 µM is 8.3% and the activity at 0.1 µM was found to be 60%. Moreover, in series [1] (compound / Compound E), the Activity ratio worked out at 6.0. Besides, the anti-β effect result in series [2] (5 mg/kg i.v.) is given as “+++”. Also, in series [3] (5 mg/kg i.v.), the anti-α effect entry is “+++”. Further, the LD50 (commonly the dose expected to kill half of the subjects tested) in series [4] is 26 mg/kg.
For the molecule `CCCCN(CCCC)CCCOc1ccc(S(=O)(=O)c2c(CC)cn3ccccc23)cc1C.Cl` [Ex. 9, 2-Ethyl-1-{4-[3-(di-n-butylamino)propyloxy]-3-methylbenzenesulphonyl}indolizine hydrochloride], in series [1], the activity at 1 µM came to 17.4% and the activity at 0.1 µM is 57.2%. In series [2] (Canis lupus familiaris, iv), the inhibition in vivo (in general, the share of the control response that was lost under treatment) at 1 mg/kg was at least 50%. Moreover, in series [3] (Canis lupus familiaris, iv), the inhibition in vivo at 1 mg/kg was at least 50%. Also, the median lethal dose (LD50) in series [4] was 55 mg/kg.
As for `CCCCN(CCCC)CCCOc1ccc(S(=O)(=O)c2c(CCC)cn3ccccc23)cc1.O=C(O)C(=O)O` [Ex. 11, 2-n-Propyl-1-{4-[3-(di-n-butylamino)propyloxy]benzenesulphonyl}indolizine oxalate], in series [1], the activity at 1 µM came out at 8.8% and the activity at 0.1 µM stood at 37.7%. The molecule further displayed an inhibition in vivo at 1 mg/kg in series [2] (Canis lupus familiaris, iv) of at least 50%. This molecule came in with an inhibition in vivo at 1 mg/kg in series [3] (Canis lupus familiaris, iv) of at least 50%. This molecule also had an LD50 in series [4] of 28 mg/kg.
Turning to `CCCCc1cn2ccccc2c1S(=O)(=O)c1ccc(OCCCN(CCCC)CCCC)cc1.O=C(O)C(=O)O` [Ex. 13, 2-n-Butyl-1-{4-[3-(di-n-butylamino)propyloxy]benzenesulphonyl}indolizine oxalate], the activity at 1 µM in series [1] was 39.8%. For the same molecule, the Activity ratio in series [1] (compound / Compound C) was determined as 2.0. Also, the inhibition in vivo at 5 mg/kg in series [2] (setting [5]) and in series [3] (setting [5]) was at least 50% each time. The molecule further yielded a 50% lethal dose (LD50) in series [4] of 31 mg/kg.
Turning to `CCCCN(CCCC)CCCOc1ccc(S(=O)(=O)c2c(-c3ccccc3)cn3ccccc23)cc1.Cl` [Ex. 18, 2-Phenyl-1-{4-[3-(di-n-butylamino)propyloxy]benzenesulphonyl}indolizine hydrochloride], the activity at 1 µM in series [1] amounted to 55.6%. This molecule also came in with an LD50 in series [4] of 35 mg/kg.
The like results for `CCCCN(CCCC)CCCOc1ccc(S(=O)(=O)c2c(-c3ccccc3)cn3ccccc23)cc1C.Cl` [Ex. 19, 2-Phenyl-1-{4-[3-(di-n-butylamino)propyloxy]-3-methylbenzenesulphonyl}indolizine hydrochloride] were, in that order, 77.2% and 60 mg/kg.
Regarding `CCc1cn2ccccc2c1S(=O)(=O)c1ccc(OCCCN(C)CCc2ccc(OC)c(OC)c2)cc1` [Ex. 28, 2-Ethyl-1-[4-{3-[N-methyl-N-(3,4-dimethoxy-β-phenethyl)-amino]propyloxy}benzenesulphonyl]indolizine], in series [1], the activity at 0.1 µM was 14.2%, the activity at 0.01 µM turned out to be 60.2% and the activity at 0.001 µM stood at 85.4%. In series [2] (Canis lupus familiaris, iv, 0.1 mg/kg i.v.), this molecule showed an inhibition in vivo at 0.1 mg/kg of at least 50%. The anti-α effect result in series [3] (0.1 mg/kg i.v.) is listed as “+++”. Besides, the median lethal dose (LD50) in series [4] is 32 mg/kg.
Consider `COc1ccc(CCN(C)CCCOc2ccc(S(=O)(=O)c3c(C(C)C)cn4ccccc34)cc2)cc1OC` [Ex. 30, 2-Isopropyl-1-[4-{3-[N-methyl-N-(3,4-dimethoxy-β-phenethyl)amino]propyloxy}benzenesulphonyl]indolizine], for which, in series [1], the activity at 0.1 µM turned out to be 9.4%, the activity at 0.01 µM was determined as 40.1% and the activity at 0.001 µM came out at 81.7%. In addition, in series [2] (0.1 mg/kg i.v.), the anti-β effect entry is on record as “+++”. In addition, in series [3] (0.1 mg/kg i.v.), the anti-α effect entry is “+++”. In addition, the LD50 in series [4] is 140 mg/kg.

The values above are taken from US5147878A, “Aminoalkoxyphenyl derivatives, process of preparation and compositions containing the same” (Sanofi, priority 1986, dated 1992).
